# From US20250241931A1, “METHODS OF TREATING A SUBJECT HAVING CLINICALLY SIGNIFICANT SIGNS AND SYMPTOMS ASSOCIATED WITH BLOOD CELL DIFFERENTIATION” (FOGHORN THERAPEUTICS INC., priority 2022, published 2025)
# System: subjects with advanced hematologic malignancies (R/R AML or MDS)
# Assay: ascending multiple dose escalation clinical trial (safety and tolerability, oral administration)
# Assay type: in vivo, human
# Settings: ongoing study
# Description: An ascending multiple dose escalation clinical trial of the compound shown below is conducted. It is primarily intended to evaluate the safety and tolerability of the compound shown below when administered orally to subjects with advanced hematologic malignancies, specifically relapsed or refractory acute myeloid leukemia (R/R AML) or myelodysplastic syndrome (MDS).
# In this ongoing study, clinically significant signs and symptoms associated with blood cell differentiation have been reported for one of 21 subjects with acute myeloid leukemia treated with the compound shown above. This occurred approximately 7-14 days into the treatment with the compound shown above.
smiles,measurement,setting,value
COC[C@H](NC(=O)c1ccn(S(C)(=O)=O)c1)C(=O)Nc1nc(-c2cccc(N3C[C@@H](C)O[C@@H](C)C3)n2)cs1,subjects with clinically significant signs and symptoms associated with blood cell differentiation,subjects with acute myeloid leukemia treated orally with the compound,one of 21
same,"time of occurrence of the clinically significant signs and symptoms associated with blood cell differentiation, into the treatment",the one affected subject with acute myeloid leukemia,7 to 14 days
